Reference: US7981401B2, “Diuretic aerosols and methods of making and using them” (priority 2002, dated 2011)
One block for each molecule: values may come before it.

Assays:
[1] = type: in vivo, Beagle dog
Text: This example is meant to illustrate one way in which toxicology and pharmacokinetic data may be investigated with respect to the bumetanide condensation aerosols described herein. Toxicology and pharmacokinetic data may be gathered by studying daily oropharyngeal inhalation of bumetanide condensation aerosols over a 14 day period using a beagle dog model.
Before treatment initiation, all animals are weighed and assigned to treatment groups using a randomization procedure. Animals are assigned into the following groups: bumetanide high dose, bumetanide mid dose, bumetanide low dose, and vehicle control at 3 animals per sex per dose. The dose levels for bumetanide are generally approximately 0.1 mg/kg for the low dose group, 0.5 mg/kg for the mid dose group, and 2 mg/kg for the high dose group. The dose levels can be refined through an initial dose ranging toxicology study.
Animals are treated with the test aerosols using an oropharyngeal face mask fitted with inlet and outlet tubes. During treatment, animals are placed in a restraint sling. A mask that allows the inhalation of test material to dogs is used. The test article is generated by vaporizing bumetanide by heating to roughly 400° C. The bumetanide is an approximately 1 micron thick film coating on a stainless steel foil, which was deposited on the foil by dip coating the foil into a solution of bumetanide dissolved in organic solvent.
The resulting aerosol formed by the condensation of the vaporized bumetanide is introduced into a mixing chamber via pre-dried compressed air. The mixing chamber is operated under slight positive pressure maintained by means of a gate valve located in the exhaust line. A vacuum pump is used to exhaust the inhalation chamber at the required flow rate and draw the contaminated air (excess aerosol and expired air) through a purifying system consisting of a 5 μm coarse filter before expelling the air from the building. The resulting atmosphere is carried to the dog mask via a delivery tube.
To ensure that the doses are correct, prior to the start of the treatment each day, atmosphere characterization of the test article aerosol is performed. Analysis of the aerosol particle size distribution for each bumetanide dose is conducted using a Cascade Impactor. Typical mass median aerodynamic diameter and geometric standard deviation measured during the study are 1.5 μm±2. Actual mask output concentrations of aerosol are measured during each exposure day from a sampling port from the animal breathing zone.
The achieved dose of active ingredient (mg/kg/day) for each treatment level is determined as follows: Achieved Dose of Active Ingredient=[RMV×Active Concentration×T×D]/BW
Where the achieved dose of the active ingredient is in mg/kg/day; the RMV (i.e., respiratory minute volume) is in L/min; the Active Concentration (i.e., chamber concentration of active ingredient determined by chemical analysis) is in mg/L; T (i.e., treatment time) is in minutes; D is the total aerosol deposition fraction, according to the particle size; and BW (i.e., mean body weight per sex per group from the regular body weight occasions during treatment) is in kg.
Dogs are treated with the bumetanide aerosol using the above approach to deliver the drug aerosol and compute the delivered dose. The exposure period required to deliver a dose is typically approximately 10 minutes. Plasma samples for pharmacokinetic analysis are collected on one or more treatment days. Samples are typically collected pre-dose, 2 minutes into dosing, and the end of dosing, 20 minutes post dose, 1 hour post dose, 3 hours post dose, 9 hours post dose, and 24 hours post dose. Samples are analyzed by an appropriate method such as LC/MS or LC/MS/MS to determine the pharmacokinetics of bumetanide absorption and elimination. […]

[2] = Volatilization on flashbar and HPLC purity analysis of the condensation aerosol; type: physicochemical; settings: heated to about 400° C. within about 200 ms, 15 L/min air
Text: Purity of a diuretic containing aerosol may be determined using a number of different methods. It should be noted that when the term “purity” is used, it refers to the percentage of aerosol minus the percent byproduct produced in its formation. Byproducts for example, are those unwanted products produced during vaporization. For example, byproducts include thermal degradation products as well as any unwanted metabolites of the active compound or compounds. Examples of suitable methods for determining aerosol purity are described in Sekine et al., Journal of Forensic Science 32:1271-1280 (1987) and in Martin et al., Journal of Analytic Toxicology 13:158-162 (1989).
One suitable method involves the use of a trap. In this method, the aerosol is collected in a trap in order to determine the percent or fraction of byproduct. Any suitable trap may be used. Suitable traps include filters, glass wool, impingers, solvent traps, cold traps, and the like. Filters are often most desirable. The trap is then typically extracted with a solvent, e.g. acetonitrile, and the extract subjected to analysis by any of a variety of analytical methods known in the art, for example, gas, liquid, and high performance liquid chromatography particularly useful.
(§1) About 1.1 mg of ethacrynic acid (MW 303, melting point 122° C., oral dose 25 mg) was dip coated onto the stainless steel surface of a flashbar apparatus at a thickness of about 1.32 μm. (The flashbar is a cylinder 3.5 cm long and 1.3 cm in diameter consisting of a hollow tube of 0.005″ thick stainless steel.) Brass electrodes were connected to either end of the steel cylinder. The coated flashbar was secured in an electrical mount, which connected to two 1.0 Farad capacitors in parallel. An airway was provided by a 2 cm diameter glass sleeve placed around the flashbar. 15 L/min of room air were pulled by a house vacuum through the vaporization chamber and a filter housing, which contained a two-micron Teflon filter. A power supply charged the capacitors to 20.5 volts, at which point the circuit was closed with a switch and the stainless steel flashbar was resistively heated to about 400° C. within about 200 milliseconds. The drug aerosolized and flowed through the airway and into the filter. The Teflon filter was extracted with 5 mL of acetonitrile, and the sample was run through an HPLC for purity analysis.
as §1, with “1.01” for “1.1”, “1.21” for “1.32”
About 1.09 mg of bumetanide (MW 364, melting point 231° C., oral dose 0.5 mg) was dip coated onto the stainless steel surface of a flashbar apparatus at a thickness of about 1.3 μm. (The flashbar is a cylinder 3.5 cm long and 1.3 cm in diameter consisting of a hollow tube of 0.005″ thick stainless steel.) Brass electrodes were connected to either end of the steel cylinder. The coated flashbar was secured in an electrical mount, which connected to two 1.0 Farad capacitors in parallel. […]

Structure (SMILES): CCCCNc1cc(C(=O)O)cc(S(N)(=O)=O)c1Oc1ccccc1 [bumetanide]
mass median aerodynamic diameter of the aerosol ([1]; Cascade Impactor, typical value during the study): 1.5 μm | food consumption ([1]; dog, in vivo): roughly normal | gross pathology at necropsy ([1]; dog, in vivo): No treatment related findings | histopathological examination of gross lesions ([1]; dog, in vivo): no treatment related findings | histopathological examination of larynx, trachea, mainstem bronchi, lungs ([1]; dog, in vivo): No treatment related abnormalities are observed | time of peak plasma levels ([1]; dog, in vivo): ≤ 10 min | duration of the increase in urination following treatment ([1]; dog, inhalation): approximately 4 hour | urination immediately following drug administration ([1]; dog, inhalation): an increase in urination is noted | aerosol purity (HPLC) ([2]; film about 1.3 μm on stainless steel): 98.44%

aerosol purity (HPLC) ([2]; film about 1.21 μm on stainless steel): 99.57% | aerosol purity (HPLC) ([2]; film about 1.32 μm on stainless steel): 99.83%
Structure (SMILES): C=C(CC)C(=O)c1ccc(OCC(=O)O)c(Cl)c1Cl [ethacrynic acid]

aerosol purity (HPLC) ([2]; film about 0.97 μm, from 88% formic acid): 99.76% | aerosol purity (HPLC) ([2]; film about 1.11 μm, manually coated): 100%
Structure (SMILES): Nc1nc(N)c2nc(-c3ccccc3)c(N)nc2n1 [triamterene]

aerosol purity (HPLC) ([2]; film about 0.85 μm on stainless steel): 100% | aerosol purity (HPLC) ([2]; film about 1.01 μm on stainless steel): 100%
Structure (SMILES): CC(=O)S[C@@H]1CC2=CC(=O)CC[C@]2(C)[C@H]2CC[C@@]3(C)[C@@H](CC[C@@]34CCC(=O)O4)[C@H]12 [spironolactone]
